Experimental data from ChEMBL document CHEMBL1152441, “Discovery of [18F]N-(2-(diethylamino)ethyl)-6-fluoronicotinamide: a melanoma positron emission tomography imaging radiotracer with high tumor to body contrast ratio and rapid renal clearance” (J Med Chem, 2009).

Key:
[1] = Biodistribution in eye of mouse B16F0 cells implanted C57BL/6J mouse assessed per gram of tissue at 0.4 to 5.5 MBq, iv after 6 hrs by gamma counter; assay type: ADME, organism-based; details: in vivo
Bone [2] = experiment: Biodistribution in bone of mouse B16F0 cells implanted C57BL/6J mouse assessed per gram of tissue at 0.4 to 5.5 MBq, iv after 0.25 hrs by gamma counter; assay type: ADME, organism-based, Bone element; details: in vivo
Intestine [3] = experiment: Biodistribution in intestine of mouse B16F0 cells implanted C57BL/6J mouse assessed per gram of tissue at 0.4 to 5.5 MBq, iv after 1 hr by gamma counter; assay type: ADME, organism-based; details: in vivo
Bone [4] = experiment: Biodistribution in bone of mouse B16F0 cells implanted C57BL/6J mouse assessed per gram of tissue at 0.4 to 5.5 MBq, iv after 1 hr by gamma counter; assay type: ADME, organism-based, Bone element; details: in vivo
Intestine [5] = experiment: Biodistribution in intestine of mouse B16F0 cells implanted C57BL/6J mouse assessed per gram of tissue at 0.4 to 5.5 MBq, iv after 0.25 hrs by gamma counter; assay type: ADME, organism-based; details: in vivo
Thyroid gland [6] = experiment: Biodistribution in thyroid of mouse B16F0 cells implanted C57BL/6J mouse assessed per gram of tissue at 0.4 to 5.5 MBq, iv after 3 hrs by gamma counter; assay type: ADME, organism-based; details: in vivo
Spleen [7] = experiment: Biodistribution in spleen of mouse B16F0 cells implanted C57BL/6J mouse assessed per gram of tissue at 0.4 to 5.5 MBq, iv after 0.25 hrs by gamma counter; assay type: ADME, organism-based; details: in vivo
[8] = Biodistribution in tumor of mouse B16F0 cells implanted C57BL/6J mouse assessed per gram of tissue at 0.4 to 5.5 MBq, iv after 1 hr by gamma counter; assay type: ADME, organism-based, Neoplasm; details: in vivo
Bone [9] = experiment: Biodistribution in bone of mouse B16F0 cells implanted C57BL/6J mouse assessed per gram of tissue at 0.4 to 5.5 MBq, iv after 6 hrs by gamma counter; assay type: ADME, organism-based, Bone element; details: in vivo
Intestine [10] = experiment: Biodistribution in intestine of mouse B16F0 cells implanted C57BL/6J mouse assessed per gram of tissue at 0.4 to 5.5 MBq, iv after 6 hrs by gamma counter; assay type: ADME, organism-based; details: in vivo
[11] = Biodistribution in eye of mouse B16F0 cells implanted C57BL/6J mouse assessed per gram of tissue at 0.4 to 5.5 MBq, iv after 1 hr by gamma counter; assay type: ADME, organism-based; details: in vivo
Thyroid gland [12] = experiment: Biodistribution in thyroid of mouse B16F0 cells implanted C57BL/6J mouse assessed per gram of tissue at 0.4 to 5.5 MBq, iv after 1 hr by gamma counter; assay type: ADME, organism-based; details: in vivo
Thyroid gland [13] = experiment: Biodistribution in thyroid of mouse B16F0 cells implanted C57BL/6J mouse assessed per gram of tissue at 0.4 to 5.5 MBq, iv after 0.25 hrs by gamma counter; assay type: ADME, organism-based; details: in vivo
Stomach [14] = experiment: Biodistribution in stomach of mouse B16F0 cells implanted C57BL/6J mouse assessed per gram of tissue at 0.4 to 5.5 MBq, iv after 3 hrs by gamma counter; assay type: ADME, organism-based; details: in vivo
Spleen [15] = experiment: Biodistribution in spleen of mouse B16F0 cells implanted C57BL/6J mouse assessed per gram of tissue at 0.4 to 5.5 MBq, iv after 6 hrs by gamma counter; assay type: ADME, organism-based; details: in vivo
Stomach [16] = experiment: Biodistribution in stomach of mouse B16F0 cells implanted C57BL/6J mouse assessed per gram of tissue at 0.4 to 5.5 MBq, iv after 1 hr by gamma counter; assay type: ADME, organism-based; details: in vivo
Lung [17] = experiment: Biodistribution in lung of mouse B16F0 cells implanted C57BL/6J mouse assessed per gram of tissue at 0.4 to 5.5 MBq, iv after 3 hrs by gamma counter; assay type: ADME, organism-based; details: in vivo
[18] = Biodistribution in tumor of mouse B16F0 cells implanted C57BL/6J mouse assessed per gram of tissue at 0.4 to 5.5 MBq, iv after 3 hrs by gamma counter; assay type: ADME, organism-based, Neoplasm; details: in vivo
Spleen [19] = experiment: Biodistribution in spleen of mouse B16F0 cells implanted C57BL/6J mouse assessed per gram of tissue at 0.4 to 5.5 MBq, iv after 1 hr by gamma counter; assay type: ADME, organism-based; details: in vivo
Intestine [20] = experiment: Biodistribution in intestine of mouse B16F0 cells implanted C57BL/6J mouse assessed per gram of tissue at 0.4 to 5.5 MBq, iv after 3 hrs by gamma counter; assay type: ADME, organism-based; details: in vivo
Stomach [21] = experiment: Biodistribution in stomach of mouse B16F0 cells implanted C57BL/6J mouse assessed per gram of tissue at 0.4 to 5.5 MBq, iv after 6 hrs by gamma counter; assay type: ADME, organism-based; details: in vivo
Stomach [22] = experiment: Biodistribution in stomach of mouse B16F0 cells implanted C57BL/6J mouse assessed per gram of tissue at 0.4 to 5.5 MBq, iv after 0.25 hrs by gamma counter; assay type: ADME, organism-based; details: in vivo
Thyroid gland [23] = experiment: Biodistribution in thyroid of mouse B16F0 cells implanted C57BL/6J mouse assessed per gram of tissue at 0.4 to 5.5 MBq, iv after 6 hrs by gamma counter; assay type: ADME, organism-based; details: in vivo
Lung [24] = experiment: Biodistribution in lung of mouse B16F0 cells implanted C57BL/6J mouse assessed per gram of tissue at 0.4 to 5.5 MBq, iv after 0.25 hrs by gamma counter; assay type: ADME, organism-based; details: in vivo
Lung [25] = experiment: Biodistribution in lung of mouse B16F0 cells implanted C57BL/6J mouse assessed per gram of tissue at 0.4 to 5.5 MBq, iv after 1 hr by gamma counter; assay type: ADME, organism-based; details: in vivo
Spleen [26] = experiment: Biodistribution in spleen of mouse B16F0 cells implanted C57BL/6J mouse assessed per gram of tissue at 0.4 to 5.5 MBq, iv after 3 hrs by gamma counter; assay type: ADME, organism-based; details: in vivo
[27] = Biodistribution in eye of mouse B16F0 cells implanted C57BL/6J mouse assessed per gram of tissue at 0.4 to 5.5 MBq, iv after 0.25 hrs by gamma counter; assay type: ADME, organism-based; details: in vivo
[28] = Biodistribution in tumor of mouse B16F0 cells implanted C57BL/6J mouse assessed per gram of tissue at 0.4 to 5.5 MBq, iv after 6 hrs by gamma counter; assay type: ADME, organism-based, Neoplasm; details: in vivo
Bone [29] = experiment: Biodistribution in bone of mouse B16F0 cells implanted C57BL/6J mouse assessed per gram of tissue at 0.4 to 5.5 MBq, iv after 3 hrs by gamma counter; assay type: ADME, organism-based, Bone element; details: in vivo
Lung [30] = experiment: Biodistribution in lung of mouse B16F0 cells implanted C57BL/6J mouse assessed per gram of tissue at 0.4 to 5.5 MBq, iv after 6 hrs by gamma counter; assay type: ADME, organism-based; details: in vivo
[31] = Lipophilicity, log P at pH 7.5; assay type: physicochemical; details: buffer
[32] = Biodistribution in eye of mouse B16F0 cells implanted C57BL/6J mouse assessed per gram of tissue at 0.4 to 5.5 MBq, iv after 3 hrs by gamma counter; assay type: ADME, organism-based; details: in vivo
[33] = Biodistribution in tumor of mouse B16F0 cells implanted C57BL/6J mouse assessed per gram of tissue at 0.4 to 5.5 MBq, iv after 0.25 hrs by gamma counter; assay type: ADME, organism-based, Neoplasm; details: in vivo

CCN(CC)CCNC(=O)c1ccnc([18F])c1
Drug uptake [1]: 16.5% | Drug uptake (Bone [2]): 4% | Drug uptake (Intestine [3]): 2.9% | Drug uptake (Bone [4]): 1.5% | Drug uptake (Intestine [5]): 7% | Drug uptake (Thyroid gland [6]): 1.5% | Drug uptake (Spleen [7]): 10.3% | Drug uptake [8]: 12.2% | Drug uptake (Bone [9]): 0.43% | Drug uptake (Intestine [10]): 0.23% | Drug uptake [11]: 23.7% | Drug uptake (Thyroid gland [12]): 2.2% | Drug uptake (Thyroid gland [13]): 4.8% | Drug uptake (Stomach [14]): 0.82% | Drug uptake (Spleen [15]): 1.3% | Drug uptake (Stomach [16]): 5.3% | Drug uptake (Lung [17]): 0.37% | Drug uptake [18]: 8.8% | Drug uptake (Spleen [19]): 3.2% | Drug uptake (Intestine [20]): 0.72% | Drug uptake (Stomach [21]): 0.3% | Drug uptake (Stomach [22]): 13.2% | Drug uptake (Thyroid gland [23]): 1% | Drug uptake (Lung [24]): 5.7% | Drug uptake (Lung [25]): 1.8% | Drug uptake (Spleen [26]): 2.3% | Drug uptake [27]: 17.3% | Drug uptake [28]: 7.2% | Drug uptake (Bone [29]): 0.77% | Drug uptake (Lung [30]): 0.14% | logD [31]: 1.22 | Drug uptake [32]: 18.8% | Drug uptake [33]: 7%
